ChEMBL document CHEMBL1144093, “Neocrotocembranal from Croton oblongifolius” (1999)
The source made the active and inactive calls. The rule behind the calls is not given here.

Assays:
P388 = experiment: Cytotoxicity against mouse P388 cells by MTT colorimetric method; format: functional
Platelet = experiment: Inhibition of thrombin-induced rabbit washed platelets aggregation by turbidimetric method; format: functional, Oryctolagus cuniculus

In the case of C/C1=C\CC/C(C)=C/C=C(/C(C)C)CC/C(C(=O)O)=C/CC1, the Activity (P388) is reported as “inactive”.
C/C1=C\C=C(\C(C)C)CC/C(C=O)=C\CC/C(C)=C/CC1 [NEOCROTOCEMBRANAL] showed an Activity (P388) of 6.48 µg/mL and an Activity (Platelet) of 47.21 µg/mL.
Molecule C/C1=C\C=C(\C(C)C)CC/C(C(=O)O)=C\CC/C(C)=C/CC1 [NEOCROTOCEMBRANEIC ACID] has an Activity (P388) of 41.47 µg/mL.
